The text below walks through data of ChEMBL document CHEMBL1944536, “Increased endothelial cell selectivity of triazole-bridged dihalogenated A-ring analogues of combretastatin A-1” (Bioorg Med Chem, 2012).

Each structure is given as a SMILES string.

Broadly, the IC50 is the point on the concentration scale where inhibition reaches its midpoint. One may read the inhibition as the share of the control response that was lost under treatment.

Assay [1] deals with HUVEC. The assay is described as follows: Antivascular activity against HUVEC cells assessed as cell growth inhibition after 24 hrs by xCELLigence assay. The class given is functional, cell-based. To be noted: Homo sapiens.
The subject of assay [2] is HUVEC. The assay is described as follows: Antivascular activity against HUVEC cells assessed as cell growth inhibition after 48 hrs by xCELLigence assay. The class given is functional, cell-based. As to conditions: Homo sapiens.
Assay [3] relates to SK-OV-3. The assay is described as follows: Cell cycle arrest in human SKOV3 cells assessed as accumulation at G2/M phase at 5 nM by flow cytometry (reference value: 14%). The class given is functional. (In flow cytometry, cells or beads pass a laser one at a time.)
The species entered for another assay is Bos taurus. The assay is described as follows: Inhibition of bovine tubulin polymerization at 5 uM measured every 30 secs for 60 mins by spectrophotometry relative to control.
Assay [4] deals with SK-OV-3. Kind of assay: Cell cycle arrest in human SKOV3 cells assessed as accumulation at S phase at 5 nM by flow cytometry (reference value: 31%). It is filed as functional.
The subject of assay [5] is SK-OV-3. Kind of assay: Cytotoxicity against human SKOV3 cells after 48 hrs by MTS assay. The class given is functional, cell-based. To be noted: SK-OV-3, 48 h. In general terms: Tetrazolium dyes change colour on reduction, which living cells bring about.
Assay [6] has as its system SK-OV-3. The assay is described as follows: Cell cycle arrest in human SKOV3 cells assessed as accumulation at G1 phase at 5 nM by flow cytometry (reference value: 54%). It is filed as functional.
The subject of assay [7] is HUVEC. Kind of assay: Antivascular activity against HUVEC cells assessed as cell growth inhibition measured every 30 mins for 21 hrs by xCELLigence assay. The class given is functional, cell-based. As to conditions: Homo sapiens.
A further assay deals with HeLa. The assay is described as follows: Cytotoxicity against human HeLa cells. The class given is functional, cell-based.

Regarding `COc1ccc(/C=C\c2cc(OC)c(OC)c(OC)c2)c(O)c1O` [COMBRETASTATIN A-1], the IC50 turned out to be 2.6 nM with HUVEC [1] and 4.1 nM in the assay with HUVEC [2].

In the case of `COc1ccc(/C=C\c2cc(Br)c(OC)c(Br)c2)cc1O`, the Activity in the assay on SK-OV-3 [3] amounted to 54%.

`COc1ccc(/C=C\c2cc(OC)c(OC)c(OC)c2)cc1O` [COMBRETASTATIN A4] showed an inhibition in the assay filed under Bos taurus of 57.6%. The values for the Activity in the assay with SK-OV-3 [4], in the assay with SK-OV-3 [6] and in the assay with SK-OV-3 [3] were 23%, 40% and 31%, respectively. The IC50 came to 1.7 nM in the assay on SK-OV-3 [5] and 2.2 nM with HUVEC [7].

`COc1ccc(/C=C\c2cc(I)c(OC)c(I)c2)cc1O`: the Activity with SK-OV-3 [3] is recorded as 84%.

`COc1cc(-c2nn[nH]c2-c2ccc(N)cc2)cc(OC)c1OC`: the IC50 with HeLa came out at 5 µM.
